Laboratory results reported in the kinase profiling compilation of Christmann-Franck et al. (2016).

Experiments:
Experiment in all cases: radiometric filter-binding kinase assay, Kinase HotSpot
Details in all cases: compound 0.5 µM; ATP 10 µM
ACVRL1 (human) = ACVRL1 (human) (UniProt P37023)
BRSK1 (human) = BRSK1 (human) (UniProt Q8TDC3)
BRSK2 (human) = BRSK2 (human) (UniProt Q8IWQ3)
CAMK1D (human) = CAMK1D (human) (UniProt Q8IU85)
CAMK2B (human) = CAMK2B (human) (UniProt Q13554)
CAMK2D (human) = CAMK2D (human) (UniProt Q13557)
CDK6 CCND1 (human) = CDK6 CCND1 (human) (UniProt Q00534+P24385)
CDK6 CCND3 (human) = CDK6 CCND3 (human) (UniProt P30281+Q00534)
CDK9 CCNK (human) = CDK9 CCNK (human) (UniProt O75909+P50750)
CLK1 (human) = CLK1 (human) (UniProt P49759)
CSF1R (human) = CSF1R (human) (UniProt P07333)
CSNK1A1 (human) = CSNK1A1 (human) (UniProt P48729)
CSNK1G3 (human) = CSNK1G3 (human) (UniProt Q9Y6M4)
DYRK1B (human) = DYRK1B (human) (UniProt Q9Y463)
DYRK3 (human) = DYRK3 (human) (UniProt O43781)
EPHA4 (human) = EPHA4 (human) (UniProt P54764)
Sequence of EPHA4 (human) (P54764 whole entry, looked up): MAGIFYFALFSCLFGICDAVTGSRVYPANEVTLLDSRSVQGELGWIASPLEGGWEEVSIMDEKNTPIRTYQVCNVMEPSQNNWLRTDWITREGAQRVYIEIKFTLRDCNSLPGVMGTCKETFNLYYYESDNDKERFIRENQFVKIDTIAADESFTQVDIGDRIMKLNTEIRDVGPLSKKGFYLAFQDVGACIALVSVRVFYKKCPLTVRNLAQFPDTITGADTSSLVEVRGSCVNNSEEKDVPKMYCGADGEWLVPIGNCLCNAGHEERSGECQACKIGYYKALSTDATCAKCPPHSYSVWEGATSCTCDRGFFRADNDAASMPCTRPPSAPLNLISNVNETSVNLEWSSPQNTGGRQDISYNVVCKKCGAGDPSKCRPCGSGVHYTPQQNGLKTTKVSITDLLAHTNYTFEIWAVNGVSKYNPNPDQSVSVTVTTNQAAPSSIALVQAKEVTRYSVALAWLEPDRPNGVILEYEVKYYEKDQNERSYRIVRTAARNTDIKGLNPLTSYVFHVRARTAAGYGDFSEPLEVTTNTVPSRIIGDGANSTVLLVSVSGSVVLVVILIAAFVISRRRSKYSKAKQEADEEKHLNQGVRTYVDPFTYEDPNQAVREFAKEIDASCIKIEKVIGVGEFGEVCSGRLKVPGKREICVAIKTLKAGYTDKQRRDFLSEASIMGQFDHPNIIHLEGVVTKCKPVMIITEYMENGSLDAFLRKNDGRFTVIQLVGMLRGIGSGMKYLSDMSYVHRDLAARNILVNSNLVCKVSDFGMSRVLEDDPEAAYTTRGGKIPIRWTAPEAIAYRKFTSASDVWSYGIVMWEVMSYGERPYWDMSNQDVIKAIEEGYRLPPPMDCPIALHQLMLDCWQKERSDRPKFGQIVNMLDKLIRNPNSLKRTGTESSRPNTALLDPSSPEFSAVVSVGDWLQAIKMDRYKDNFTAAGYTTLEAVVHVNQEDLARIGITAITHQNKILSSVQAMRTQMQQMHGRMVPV

ERBB2 (human) = ERBB2 (human) (UniProt P04626)
FGFR3 (human) = FGFR3 (human) (UniProt P22607)
GRK5 (human) = GRK5 (human) (UniProt P34947)
HIPK1 (human) = HIPK1 (human) (UniProt Q86Z02)
HIPK4 (human) = HIPK4 (human) (UniProt Q8NE63)
Sequence of HIPK4 (human) (Q8NE63 whole entry, looked up): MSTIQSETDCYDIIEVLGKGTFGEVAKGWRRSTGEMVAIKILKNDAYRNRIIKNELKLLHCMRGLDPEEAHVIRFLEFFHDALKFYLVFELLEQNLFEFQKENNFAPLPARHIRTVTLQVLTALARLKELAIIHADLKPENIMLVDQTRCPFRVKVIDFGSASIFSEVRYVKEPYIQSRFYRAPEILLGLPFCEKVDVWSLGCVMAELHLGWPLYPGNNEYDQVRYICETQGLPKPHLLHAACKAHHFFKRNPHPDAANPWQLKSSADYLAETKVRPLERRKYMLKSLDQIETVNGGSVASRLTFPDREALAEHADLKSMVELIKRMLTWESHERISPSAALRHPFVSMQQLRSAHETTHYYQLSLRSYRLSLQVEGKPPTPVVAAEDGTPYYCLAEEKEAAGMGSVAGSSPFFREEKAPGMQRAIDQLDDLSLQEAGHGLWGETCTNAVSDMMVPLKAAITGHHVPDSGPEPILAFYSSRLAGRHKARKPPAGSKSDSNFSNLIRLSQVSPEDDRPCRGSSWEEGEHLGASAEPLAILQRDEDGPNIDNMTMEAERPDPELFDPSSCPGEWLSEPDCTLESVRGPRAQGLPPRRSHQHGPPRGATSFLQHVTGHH

MAP3K14 (human) = MAP3K14 (human) (UniProt Q99558)
MAP3K2 (human) = MAP3K2 (human) (UniProt Q9Y2U5)
MAP3K7 TAB1 (human) = MAP3K7 TAB1 (human) (UniProt O43318+Q15750)
Sequence of MAP3K7 TAB1 (human) (O43318 whole entry, looked up): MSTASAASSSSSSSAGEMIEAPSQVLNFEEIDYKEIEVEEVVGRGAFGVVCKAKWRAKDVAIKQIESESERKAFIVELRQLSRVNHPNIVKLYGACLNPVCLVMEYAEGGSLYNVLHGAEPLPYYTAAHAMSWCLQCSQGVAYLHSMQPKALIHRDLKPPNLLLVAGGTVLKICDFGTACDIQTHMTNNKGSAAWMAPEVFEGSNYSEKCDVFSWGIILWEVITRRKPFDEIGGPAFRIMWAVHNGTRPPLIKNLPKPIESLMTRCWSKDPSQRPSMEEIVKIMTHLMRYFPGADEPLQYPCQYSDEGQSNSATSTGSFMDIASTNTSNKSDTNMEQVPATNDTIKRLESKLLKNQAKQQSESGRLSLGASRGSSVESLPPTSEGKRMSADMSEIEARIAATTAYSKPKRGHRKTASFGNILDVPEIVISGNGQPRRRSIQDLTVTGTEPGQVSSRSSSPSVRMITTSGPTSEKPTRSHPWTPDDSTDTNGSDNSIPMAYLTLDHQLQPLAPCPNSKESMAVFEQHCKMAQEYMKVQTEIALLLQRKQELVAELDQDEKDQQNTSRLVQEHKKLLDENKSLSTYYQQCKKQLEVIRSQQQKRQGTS
Sequence of MAP3K7 TAB1 (human) (Q15750 whole entry, looked up): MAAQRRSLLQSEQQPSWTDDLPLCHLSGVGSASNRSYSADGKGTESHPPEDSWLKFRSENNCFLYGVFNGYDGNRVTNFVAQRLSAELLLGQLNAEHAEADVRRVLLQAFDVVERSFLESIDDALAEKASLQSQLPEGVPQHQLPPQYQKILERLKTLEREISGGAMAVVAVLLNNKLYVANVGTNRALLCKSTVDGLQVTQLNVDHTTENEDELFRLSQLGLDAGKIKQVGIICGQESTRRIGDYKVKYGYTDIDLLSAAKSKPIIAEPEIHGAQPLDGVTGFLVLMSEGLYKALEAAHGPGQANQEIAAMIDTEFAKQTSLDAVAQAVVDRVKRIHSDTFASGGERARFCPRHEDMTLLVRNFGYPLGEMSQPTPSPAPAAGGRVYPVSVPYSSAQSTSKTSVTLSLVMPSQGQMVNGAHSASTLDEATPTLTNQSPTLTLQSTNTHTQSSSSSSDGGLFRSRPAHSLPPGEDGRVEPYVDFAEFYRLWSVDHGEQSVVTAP

MAPK11 (human) = MAPK11 (human) (UniProt Q15759)
Sequence of MAPK11 (human) (Q15759 whole entry, looked up): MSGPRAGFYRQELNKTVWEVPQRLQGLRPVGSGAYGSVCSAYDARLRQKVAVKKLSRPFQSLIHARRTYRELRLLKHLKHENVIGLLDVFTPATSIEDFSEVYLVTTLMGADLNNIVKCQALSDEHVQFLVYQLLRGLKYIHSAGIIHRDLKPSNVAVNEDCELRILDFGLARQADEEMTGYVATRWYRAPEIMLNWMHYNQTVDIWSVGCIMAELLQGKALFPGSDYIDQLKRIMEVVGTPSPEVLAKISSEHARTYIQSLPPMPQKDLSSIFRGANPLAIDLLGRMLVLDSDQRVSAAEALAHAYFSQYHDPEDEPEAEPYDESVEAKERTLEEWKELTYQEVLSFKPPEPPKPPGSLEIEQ

MAPKAPK2 (human) = MAPKAPK2 (human) (UniProt P49137)
MST4 (human) = MST4 (human) (UniProt Q9P289)
NLK (human) = NLK (human) (UniProt Q9UBE8)
NTRK3 (human) = NTRK3 (human) (UniProt Q16288)
PRKCE (human) = PRKCE (human) (UniProt Q02156)
RPS6KA2 KD1 KD2 (human) = RPS6KA2 KD1 KD2 (human) (UniProt Q15349)
RPS6KA3 KD1 KD2 (human) = RPS6KA3 KD1 KD2 (human) (UniProt P51812)
SGK3 (human) = SGK3 (human) (UniProt Q96BR1)
SLK (human) = SLK (human) (UniProt Q9H2G2)
SRC (human) = SRC (human) (UniProt P12931)
Sequence of SRC (human) (P12931 whole entry, looked up): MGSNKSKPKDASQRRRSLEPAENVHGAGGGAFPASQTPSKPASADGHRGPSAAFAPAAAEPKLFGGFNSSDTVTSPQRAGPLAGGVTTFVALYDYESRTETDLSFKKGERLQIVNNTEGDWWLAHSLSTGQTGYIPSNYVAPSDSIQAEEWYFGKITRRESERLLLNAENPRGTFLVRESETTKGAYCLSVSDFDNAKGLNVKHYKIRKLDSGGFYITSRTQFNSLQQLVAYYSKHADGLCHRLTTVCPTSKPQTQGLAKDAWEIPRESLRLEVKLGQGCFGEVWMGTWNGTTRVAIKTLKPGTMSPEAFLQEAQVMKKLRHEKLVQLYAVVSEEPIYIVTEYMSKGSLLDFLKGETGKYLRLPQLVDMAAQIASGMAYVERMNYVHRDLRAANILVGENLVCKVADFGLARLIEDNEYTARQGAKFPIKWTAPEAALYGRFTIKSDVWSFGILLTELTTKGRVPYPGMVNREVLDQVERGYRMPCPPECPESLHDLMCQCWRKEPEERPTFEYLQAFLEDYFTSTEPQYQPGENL

STK17A (human) = STK17A (human) (UniProt Q9UEE5)
STK24 (human) = STK24 (human) (UniProt Q9Y6E0)
STK25 (human) = STK25 (human) (UniProt O00506)
Sequence of STK25 (human) (O00506 whole entry, looked up): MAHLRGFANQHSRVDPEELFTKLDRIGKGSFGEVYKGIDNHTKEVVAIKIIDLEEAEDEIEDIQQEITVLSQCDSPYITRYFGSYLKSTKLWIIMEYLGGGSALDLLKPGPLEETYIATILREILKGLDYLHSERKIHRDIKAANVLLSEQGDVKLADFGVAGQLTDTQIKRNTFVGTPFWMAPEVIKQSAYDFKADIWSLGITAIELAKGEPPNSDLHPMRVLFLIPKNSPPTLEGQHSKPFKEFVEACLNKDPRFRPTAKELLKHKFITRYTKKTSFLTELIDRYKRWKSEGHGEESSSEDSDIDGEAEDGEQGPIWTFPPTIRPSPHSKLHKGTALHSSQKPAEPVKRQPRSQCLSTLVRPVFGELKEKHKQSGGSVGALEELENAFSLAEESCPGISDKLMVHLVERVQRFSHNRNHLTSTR

TTK (human) = TTK (human) (UniProt P33981)
TYRO3 (human) = TYRO3 (human) (UniProt Q06418)
YES1 (human) = YES1 (human) (UniProt P07947)
Sequence of YES1 (human) (P07947 whole entry, looked up): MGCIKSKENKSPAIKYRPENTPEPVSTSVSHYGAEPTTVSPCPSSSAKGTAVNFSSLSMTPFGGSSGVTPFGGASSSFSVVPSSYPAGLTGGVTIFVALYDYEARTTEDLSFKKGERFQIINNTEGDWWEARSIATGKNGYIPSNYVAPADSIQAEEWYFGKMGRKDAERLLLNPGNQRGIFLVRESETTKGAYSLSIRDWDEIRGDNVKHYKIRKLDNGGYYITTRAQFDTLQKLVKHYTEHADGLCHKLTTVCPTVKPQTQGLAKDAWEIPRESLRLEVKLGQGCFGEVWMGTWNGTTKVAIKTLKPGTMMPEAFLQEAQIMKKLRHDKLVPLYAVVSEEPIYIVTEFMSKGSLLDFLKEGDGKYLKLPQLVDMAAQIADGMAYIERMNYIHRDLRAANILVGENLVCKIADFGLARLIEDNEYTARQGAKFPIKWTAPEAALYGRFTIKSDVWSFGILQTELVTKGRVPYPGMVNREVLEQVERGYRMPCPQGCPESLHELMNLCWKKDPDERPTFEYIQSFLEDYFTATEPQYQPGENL

Sequence of CAMK1D (human) (Q8IU85 whole entry, looked up): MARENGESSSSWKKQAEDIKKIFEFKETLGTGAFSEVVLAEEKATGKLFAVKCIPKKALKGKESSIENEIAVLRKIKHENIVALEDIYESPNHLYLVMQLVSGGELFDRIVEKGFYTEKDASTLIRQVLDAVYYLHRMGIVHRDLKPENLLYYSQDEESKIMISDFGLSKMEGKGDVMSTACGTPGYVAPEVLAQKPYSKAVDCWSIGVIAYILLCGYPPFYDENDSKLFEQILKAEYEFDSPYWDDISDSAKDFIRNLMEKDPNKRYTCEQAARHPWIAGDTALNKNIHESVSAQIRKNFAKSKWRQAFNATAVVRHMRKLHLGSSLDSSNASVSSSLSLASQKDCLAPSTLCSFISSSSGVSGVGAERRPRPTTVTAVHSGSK

COc1cc2ncnc(Nc3ccc(O)c(Br)c3)c2cc1OC
residual activity (ACVRL1 (human)): 102% | residual activity (BRSK1 (human)): 81.6% | residual activity (BRSK2 (human)): 80.1% | residual activity (CAMK1D (human)): 98.6% | residual activity (CAMK2B (human)): 99.3% | residual activity (CAMK2D (human)): 95.7% | residual activity (CDK6 CCND1 (human)): 95.4% | residual activity (CDK6 CCND3 (human)): 102% | residual activity (CDK9 CCNK (human)): 91.1% | residual activity (CLK1 (human)): 77.2% | residual activity (CSF1R (human)): 95.3% | residual activity (CSNK1A1 (human)): 89.6% | residual activity (CSNK1G3 (human)): 101% | residual activity (DYRK1B (human)): 91.3% | residual activity (DYRK3 (human)): 95.3% | residual activity (EPHA4 (human)): 83.7% | residual activity (ERBB2 (human)): 33.1% | residual activity (FGFR3 (human)): 98.8% | residual activity (GRK5 (human)): 101% | residual activity (HIPK1 (human)): 104% | residual activity (HIPK4 (human)): 107% | residual activity (MAP3K14 (human)): 82.6% | residual activity (MAP3K2 (human)): 92.4% | residual activity (MAP3K7 TAB1 (human)): 100% | residual activity (MAPK11 (human)): 90.1% | residual activity (MAPKAPK2 (human)): 97.7% | residual activity (MST4 (human)): 90.2% | residual activity (NLK (human)): 76.2% | residual activity (NTRK3 (human)): 83.4% | residual activity (PRKCE (human)): 93.2% | residual activity (RPS6KA2 KD1 KD2 (human)): 63.6% | residual activity (RPS6KA3 KD1 KD2 (human)): 69.4% | residual activity (SGK3 (human)): 94.5% | residual activity (SLK (human)): 50.3% | residual activity (SRC (human)): 77.5% | residual activity (STK17A (human)): 72.3% | residual activity (STK24 (human)): 91.7% | residual activity (STK25 (human)): 99.6% | residual activity (TTK (human)): 105% | residual activity (TYRO3 (human)): 78.6% | residual activity (YES1 (human)): 34.6%

O=C1NC(=O)c2cc(Nc3ccc(F)cc3)c(Nc3ccc(F)cc3)cc21
residual activity (ACVRL1 (human)): 95.9% | residual activity (BRSK1 (human)): 94.3% | residual activity (BRSK2 (human)): 96.8% | residual activity (CAMK1D (human)): 78.1% | residual activity (CAMK2B (human)): 98.7% | residual activity (CAMK2D (human)): 97.9% | residual activity (CDK6 CCND1 (human)): 99% | residual activity (CDK6 CCND3 (human)): 89.9% | residual activity (CDK9 CCNK (human)): 90.8% | residual activity (CLK1 (human)): 102% | residual activity (CSF1R (human)): 104% | residual activity (CSNK1A1 (human)): 88% | residual activity (CSNK1G3 (human)): 90.7% | residual activity (DYRK1B (human)): 105% | residual activity (DYRK3 (human)): 97.1% | residual activity (EPHA4 (human)): 94% | residual activity (ERBB2 (human)): 107% | residual activity (FGFR3 (human)): 99.7% | residual activity (GRK5 (human)): 101% | residual activity (HIPK1 (human)): 102% | residual activity (HIPK4 (human)): 82.5% | residual activity (MAP3K14 (human)): 117% | residual activity (MAP3K2 (human)): 94.8% | residual activity (MAP3K7 TAB1 (human)): 98.8% | residual activity (MAPK11 (human)): 94.6% | residual activity (MAPKAPK2 (human)): 95.7% | residual activity (MST4 (human)): 99% | residual activity (NLK (human)): 103% | residual activity (NTRK3 (human)): 95.6% | residual activity (PRKCE (human)): 97.8% | residual activity (RPS6KA2 KD1 KD2 (human)): 98.7% | residual activity (RPS6KA3 KD1 KD2 (human)): 118% | residual activity (SGK3 (human)): 102% | residual activity (SLK (human)): 65.5% | residual activity (SRC (human)): 101% | residual activity (STK17A (human)): 104% | residual activity (STK24 (human)): 93.7% | residual activity (STK25 (human)): 101% | residual activity (TTK (human)): 95.4% | residual activity (TYRO3 (human)): 94.8% | residual activity (YES1 (human)): 86.6%

O=C1NC(=O)c2c1c1c3ccccc3[nH]c1c1[nH]c3cc(Br)ccc3c21
residual activity (ACVRL1 (human)): 109% | residual activity (BRSK1 (human)): 21.5% | residual activity (BRSK2 (human)): 35.6% | residual activity (CAMK1D (human)): 92.2% | residual activity (CAMK2B (human)): 80.3% | residual activity (CAMK2D (human)): 63.1% | residual activity (CDK6 CCND1 (human)): 12.2% | residual activity (CDK6 CCND3 (human)): 40.2% | residual activity (CDK9 CCNK (human)): 82.7% | residual activity (CLK1 (human)): 97% | residual activity (CSF1R (human)): 96% | residual activity (CSNK1A1 (human)): 95.4% | residual activity (CSNK1G3 (human)): 94.6% | residual activity (DYRK1B (human)): 82.8% | residual activity (DYRK3 (human)): 94.5% | residual activity (EPHA4 (human)): 91.3% | residual activity (ERBB2 (human)): 101% | residual activity (FGFR3 (human)): 86.2% | residual activity (GRK5 (human)): 97% | residual activity (HIPK1 (human)): 98.2% | residual activity (HIPK4 (human)): 94.1% | residual activity (MAP3K14 (human)): 101% | residual activity (MAP3K2 (human)): 100% | residual activity (MAP3K7 TAB1 (human)): 91.4% | residual activity (MAPK11 (human)): 93.6% | residual activity (MAPKAPK2 (human)): 101% | residual activity (MST4 (human)): 80.5% | residual activity (NLK (human)): 81.7% | residual activity (NTRK3 (human)): 28.8% | residual activity (PRKCE (human)): 95.7% | residual activity (RPS6KA2 KD1 KD2 (human)): 37.9% | residual activity (RPS6KA3 KD1 KD2 (human)): 46.3% | residual activity (SGK3 (human)): 97.2% | residual activity (SLK (human)): 90.9% | residual activity (SRC (human)): 88.9% | residual activity (STK17A (human)): 29.5% | residual activity (STK24 (human)): 80.1% | residual activity (STK25 (human)): 84.4% | residual activity (TTK (human)): 98.7% | residual activity (TYRO3 (human)): 89.7% | residual activity (YES1 (human)): 88.4%

O=C(O)c1ccc2c3c1cccc3c(=O)n1c3ccccc3nc21
residual activity (ACVRL1 (human)): 103% | residual activity (BRSK1 (human)): 89% | residual activity (BRSK2 (human)): 90.4% | residual activity (CAMK1D (human)): 100% | residual activity (CAMK2B (human)): 92.6% | residual activity (CAMK2D (human)): 93.6% | residual activity (CDK6 CCND1 (human)): 90.6% | residual activity (CDK6 CCND3 (human)): 105% | residual activity (CDK9 CCNK (human)): 76.4% | residual activity (CLK1 (human)): 93.8% | residual activity (CSF1R (human)): 104% | residual activity (CSNK1A1 (human)): 97.6% | residual activity (CSNK1G3 (human)): 96.9% | residual activity (DYRK1B (human)): 40.1% | residual activity (DYRK3 (human)): 92.3% | residual activity (EPHA4 (human)): 103% | residual activity (ERBB2 (human)): 99.7% | residual activity (FGFR3 (human)): 92.9% | residual activity (GRK5 (human)): 97.1% | residual activity (HIPK1 (human)): 104% | residual activity (HIPK4 (human)): 86.9% | residual activity (MAP3K14 (human)): 94.8% | residual activity (MAP3K2 (human)): 90.7% | residual activity (MAP3K7 TAB1 (human)): 74.4% | residual activity (MAPK11 (human)): 105% | residual activity (MAPKAPK2 (human)): 102% | residual activity (MST4 (human)): 97.8% | residual activity (NLK (human)): 96.1% | residual activity (NTRK3 (human)): 67.1% | residual activity (PRKCE (human)): 113% | residual activity (RPS6KA2 KD1 KD2 (human)): 90.5% | residual activity (RPS6KA3 KD1 KD2 (human)): 95.5% | residual activity (SGK3 (human)): 103% | residual activity (SLK (human)): 94.1% | residual activity (SRC (human)): 96.3% | residual activity (STK17A (human)): 73.4% | residual activity (STK24 (human)): 87.6% | residual activity (STK25 (human)): 104% | residual activity (TTK (human)): 81% | residual activity (TYRO3 (human)): 102% | residual activity (YES1 (human)): 96.6%

Nc1ncnc2c1cnn2-c1ccccc1
residual activity (ACVRL1 (human)): 109% | residual activity (BRSK1 (human)): 90.2% | residual activity (BRSK2 (human)): 95.3% | residual activity (CAMK1D (human)): 95.6% | residual activity (CAMK2B (human)): 97.8% | residual activity (CAMK2D (human)): 94.7% | residual activity (CDK6 CCND1 (human)): 94.7% | residual activity (CDK6 CCND3 (human)): 92.2% | residual activity (CDK9 CCNK (human)): 92.9% | residual activity (CLK1 (human)): 91.8% | residual activity (CSF1R (human)): 105% | residual activity (CSNK1A1 (human)): 79.8% | residual activity (CSNK1G3 (human)): 93.4% | residual activity (DYRK1B (human)): 93% | residual activity (DYRK3 (human)): 96.8% | residual activity (EPHA4 (human)): 96.2% | residual activity (ERBB2 (human)): 107% | residual activity (FGFR3 (human)): 97.9% | residual activity (GRK5 (human)): 104% | residual activity (HIPK1 (human)): 98.4% | residual activity (HIPK4 (human)): 86.3% | residual activity (MAP3K14 (human)): 120% | residual activity (MAP3K2 (human)): 89.5% | residual activity (MAP3K7 TAB1 (human)): 98.9% | residual activity (MAPK11 (human)): 99.9% | residual activity (MAPKAPK2 (human)): 98.6% | residual activity (MST4 (human)): 82.2% | residual activity (NLK (human)): 92.5% | residual activity (NTRK3 (human)): 93.6% | residual activity (PRKCE (human)): 98.3% | residual activity (RPS6KA2 KD1 KD2 (human)): 92.5% | residual activity (RPS6KA3 KD1 KD2 (human)): 95% | residual activity (SGK3 (human)): 92.3% | residual activity (SLK (human)): 98% | residual activity (SRC (human)): 96.9% | residual activity (STK17A (human)): 102% | residual activity (STK24 (human)): 96.3% | residual activity (STK25 (human)): 93.2% | residual activity (TTK (human)): 90.6% | residual activity (TYRO3 (human)): 102% | residual activity (YES1 (human)): 93.7%
